Results as given in US10519177B2, “Heterocyclic compounds and uses thereof” (Plexxikon Inc., priority 2013, dated 2019).

Legend:
MV-4-11 cells = assay: Oncology cell growth assay MV-4-11 (CellTiter Glo); assay type: cell-based; conditions: Homo sapiens, MV4-11, 72 h; MV-4-11, 3d growth; read-out: Cell activity (IC50 μM) MV-4-11 3d-Growth
How it was run: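 MV-4-11 AML cells (MLL-AF4), 3000 per well, exposed to 8-point 1:3 compound titration from 10 μM top concentration (0.2% DMSO) for 72 h. Viability by CellTiter Glo luminescence, normalized to DMSO controls; pIC50 from four-parameter curve fit.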

BRD4-BD12 (1-477) = BRD4-BD12 (1-477) (Homo sapiens (Human), UniProt O60885); assay: Alphascreen binding assay BRD4-BD12; conditions: BRD4(1 2) H4; read-out: Biochemical activity (IC50 μM) BRD4(1 2) H4
How it was run: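 First, compound was preincubated 1 h at room temperature with the His-tagged BRD4 protein (BD1 44-164 or tandem BD12 1-477) and acetylated H4 peptide. Next, donor and acceptor beads were added at 7.5 μg/ml final. After 30 min, AlphaScreen emission was recorded.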

| SMILES | IC50 (MV-4-11 cells) [µM] | IC50 (BRD4-BD12 (1-477)) [µM] |
| --- | --- | --- |
| Cc1cccc(Cn2cc(I)c3ncc(-c4c(C)noc4C)cc32)n1 [P-0920, 4-[3-iodo-1-[(6-methyl-2-pyridyl)methyl]pyrrolo[3,2-b]pyridin-6-yl]-3,5-dimethyl-isoxazole] | < 1 | < 1 |
| CC[C@@H](c1ccccn1)n1cc(-c2ccc(C(=O)O)c(Cl)c2)c2ncc(-c3c(C)noc3C)cc21 [P-1028, 2-chloro-4-[6-(3,5-dimethylisoxazol-4-yl)-1-[(1S)-1-(2-pyridyl)propyl]pyrrolo[3,2-b]pyridin-3-yl]benzoic acid] | < 1 | < 1 |
| Cc1noc(C)c1-c1cnc2c(I)cn(C(c3ccccn3)C3CCCC3)c2c1 (centres unmarked) [P-0997, 4-[1-[cyclopentyl(2-pyridyl)methyl]-3-iodo-pyrrolo[3,2-b]pyridin-6-yl]-3,5-dimethyl-isoxazole] | < 1 | < 1 |
| Cc1noc(C)c1-c1ccc2c(-c3ccc(C(=O)O)cc3F)cn(C(c3ccccc3)c3ccccn3)c2c1 (centres unmarked) [P-1044, 4-[6-(3,5-dimethylisoxazol-4-yl)-1-[phenyl(2-pyridyl)methyl]indol-3-yl]-3-fluoro-benzoic acid] | < 1 | < 1 |
| Cc1noc(C)c1-c1ccc2c(-c3ccc(C(=O)O)cc3)cn(C(c3ccccc3)c3ccccn3)c2c1 (centres unmarked) [P-0992, 4-[6-(3,5-dimethylisoxazol-4-yl)-1-[phenyl(2-pyridyl)methyl]indol-3-yl]benzoic acid] | < 1 | < 1 |
| Cc1ccc(-c2cn([C@@H](C)c3ccccn3)c3cc(-c4c(C)noc4C)cnc23)cc1C(=O)O [P-0999, 5-[6-(3,5-dimethylisoxazol-4-yl)-1-[(1S)-1-(2-pyridyl)ethyl]pyrrolo[3,2-b]pyridin-3-yl]-2-methyl-benzoic acid] | < 1 | < 1 |
| Cc1noc(C)c1-c1cnc2c(-c3ccc(C(=O)O)cc3)cn(C(c3ccccn3)C3CCC3)c2c1 (centres unmarked) [P-1012, 4-[1-[cyclobutyl(2-pyridyl)methyl]-6-(3,5-dimethylisoxazol-4-yl)pyrrolo[3,2-b]pyridin-3-yl]benzoic acid] | < 1 | < 1 |
| CC[C@@H](c1ccccn1)n1cc(-c2ccc(C(=O)O)c(F)c2)c2ncc(-c3c(C)noc3C)cc21 [P-1022, 4-[6-(3,5-dimethylisoxazol-4-yl)-1-[(1S)-1-(2-pyridyl)propyl]pyrrolo[3,2-b]pyridin-3-yl]-2-fluoro-benzoic acid] | < 1 | < 1 |
| COC(=O)Cc1ccc(-c2cn(C(c3ccccn3)C3CCCC3)c3cc(-c4c(C)noc4C)cnc23)cc1 (centres unmarked) [P-0994, methyl 2-[4-[1-[cyclopentyl(2-pyridyl)methyl]-6-(3,5-dimethylisoxazol-4-yl)pyrrolo[3,2-b]pyridin-3-yl]phenyl]acetate] | < 1 | < 1 |
| Cc1noc(C)c1-c1cnc2c(-c3ccc(NS(C)(=O)=O)cc3)cn([C@@H](C)c3ccccn3)c2c1 [P-0979, N-[4-[6-(3,5-dimethylisoxazol-4-yl)-1-[(1S)-1-(2-pyridyl)ethyl]pyrrolo[3,2-b]pyridin-3-yl]phenyl]methanesulfonamide] | < 1 | < 1 |
| COC(=O)c1ccc(-c2cn(Cc3cccc(C)n3)c3cc(-c4c(C)noc4C)cnc23)cc1OC [P-0939, methyl 4-[6-(3,5-dimethylisoxazol-4-yl)-1-[(6-methyl-2-pyridyl)methyl]pyrrolo[3,2-b]pyridin-3-yl]-2-methoxy-benzoate] | < 1 | < 1 |
| Cc1noc(C)c1-c1cnc2c(-c3ccc(C4(N)CC4)cc3)cn(CC3CCC(F)(F)CC3)c2c1 [P-0911, 1-[4-[1-[(4,4-difluorocyclohexyl)methyl]-6-(3,5-dimethylisoxazol-4-yl)pyrrolo[3,2-b]pyridin-3-yl]phenyl]cyclopropanamine] | < 1 | < 1 |
| COc1cccc(Cn2cc(-c3ccc(C(=O)O)cc3)c3ncc(-c4c(C)noc4C)cc32)n1 [P-0931, 4-[6-(3,5-dimethylisoxazol-4-yl)-1-[(6-methoxy-2-pyridyl)methyl]pyrrolo[3,2-b]pyridin-3-yl]benzoic acid] | < 1 | < 1 |
